Measurements from ChEMBL document CHEMBL5537130, “Structure-based design of potent FABP4 inhibitors with high selectivity against FABP3” (Eur J Med Chem, 2024).

Tests used:
[1] = molecular target: Fatty acid-binding protein, heart (Homo sapiens, UniProt P05413)
Description: Displacement of 1,8-ANS from N-terminal 6His-tagged full length FABP3 (unknown origin) expressed in Escherichia coli ER2566 assessed as inhibition constant preincubated with compound for 10 mins followed by 1,8-ANS addition and measured after 3 mins by fluorescence based analysis

[2] = in vitro; settings: human, liver microsomes
Description: Metabolic stability in human liver microsomes assessed as half life at 1 uM preincubated with compound for 10 mins followed by NADPH addition and measured upto 60 mins by LC-MS/MS analysis

[3] = in vitro; settings: mouse, liver microsomes
Description: Metabolic stability in mouse liver microsomes assessed as half life at 1 uM preincubated with compound for 10 mins followed by NADPH addition and measured upto 60 mins by LC-MS/MS analysis

[4] = in vitro; settings: human, liver microsomes; remark: listed apart in the source
Description: Metabolic stability in human liver microsomes assessed as metabolic bioavailability at 1 uM preincubated with compound for 10 mins followed by NADPH addition and measured upto 60 mins by LC-MS/MS analysis

[5] = in vitro; settings: mouse, liver microsomes; remark: listed apart in the source
Description: Metabolic stability in mouse liver microsomes assessed as metabolic bioavailability at 1 uM preincubated with compound for 10 mins followed by NADPH addition and measured upto 60 mins by LC-MS/MS analysis

[6] = molecular target: Fatty acid-binding protein, adipocyte (Homo sapiens, UniProt P15090)
Fatty acid-binding protein, adipocyte, sequence (P15090 whole entry): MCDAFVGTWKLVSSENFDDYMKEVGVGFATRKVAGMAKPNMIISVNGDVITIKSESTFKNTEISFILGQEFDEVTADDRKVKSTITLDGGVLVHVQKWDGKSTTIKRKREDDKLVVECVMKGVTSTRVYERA
Description: Displacement of 1,8-ANS from N-terminal 6His-tagged full length FABP4 (unknown origin) expressed in Escherichia coli ER2566 assessed as inhibition constant preincubated with compound for 10 mins followed by 1,8-ANS addition and measured after 3 mins by fluorescence based analysis

[7] = system: FABP3 versus FABP4; experiment: in vitro; settings: probe 1,8-ANS
Description: Selectivity index, ratio of Ki for displacement of 1,8-ANS from N-terminal 6His-tagged full length FABP3 (unknown origin) expressed in Escherichia coli ER2566 to Ki for displacement of 1,8-ANS from N-terminal 6His-tagged full length FABP4 (unknown origin) expressed in Escherichia coli ER2566

Fatty acid-binding protein, heart, sequence (P05413 whole entry): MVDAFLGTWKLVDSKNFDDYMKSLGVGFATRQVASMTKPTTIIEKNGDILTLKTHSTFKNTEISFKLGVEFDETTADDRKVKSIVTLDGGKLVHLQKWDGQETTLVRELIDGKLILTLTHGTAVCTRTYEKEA

O=C(O)c1cc(Cl)ccc1Nc1cccc(Cl)c1-c1ccccc1
Ki [1]: 1.29 µM

Cc1c(F)ccc(Nc2cccc(Cl)c2-c2ccc3c(c2)CCO3)c1C(=O)O
Ki [1]: 7.51 µM

Cc1cccc(Nc2cccc(Cl)c2-c2ccccc2)c1C(=O)O
Ki [1]: 15 µM

Cc1c(F)ccc(Nc2cccc(Cl)c2-c2ccccc2)c1C(=O)O
Ki [1]: 4 µM

Cc1cccc(Nc2cccc(Cl)c2-c2ccc3c(c2)CCO3)c1C(=O)O
Ki [1]: 15.4 µM

O=C(O)c1c(Cl)cccc1Nc1cccc(Cl)c1-c1ccccc1
Ki [1]: 5.18 µM

O=C(O)c1cc(F)ccc1Nc1cccc(Cl)c1-c1ccccc1
Ki [1]: 0.37 µM

Cc1ccc(Nc2cccc(Cl)c2-c2ccccc2)c(C(=O)O)c1
Ki [1]: 7.46 µM

O=C(O)c1ccccc1Nc1cccc(Cl)c1-c1ccccc1
half-life at 1 h, 1 µM [2]: 33.5 min
half-life at 1 h, 1 µM [3]: 31.4 min
Fh at 1 h, 1 µM [4]: 24%
Fh at 1 h, 1 µM [5]: 39.9%

COc1cccc(Nc2cccc(Cl)c2-c2ccccc2)c1C(=O)O
Ki [1]: > 5 µM

COc1ccc(Nc2cccc(Cl)c2-c2ccccc2)c(C(=O)O)c1
Ki [6]: 0.359 µM
Ki [1]: 2.19 µM
selectivity ratio [7]: 6
